# In patent US6362166B1, “Antipicornaviral compounds and methods for their use and preparation” (Agouron Pharmaceuticals, Inc., priority 1996, dated 2002):
# Where two headings read alike, the source gives them in different places.
# What was measured:
# [1] = target: T1, Recombinant Rhinovirus 3C protease (RVP) serotype-14 (Human rhinovirus 14, UniProt P03303); experiment: Inhibition of Rhinovirus Protease (fluorescence resonance energy transfer assay), serotype 14; format: biochemical, human rhinovirus (HRV); conditions: for kobs/I: progress curves in enzyme start experiments; for INHIB (percent inhibition): 10 minute preincubation with 50 nM RVP
# T1 construct: Recombinant Rhinovirus 3C proteases from serotypes 14, 16, 2 or 89; made in house
# Method: Stock solution (50 mM, in DMSO) of various compounds were prepared; dilutions were in the same solvent. […] Assays contained 2% DMSO, 50 mM tris pH 7.6, 1 mM EDTA, a compound at the indicated concentrations, approximately 1 μM substrate, and 50-100 nM protease. […] The kobs/I values were obtained from reactions initiated by addition of enzyme rather than substrate. RVP activity is measured in the fluorescence resonance energy transfer assay. […] In the uncleaved peptide, the EDANS fluorescence was quenched by the proximal DABCYL moeity. When the peptide was cleaved, the quenching was relieved, and activity was measured as an increase in fluorescence signal.
# In the above table, all data is RVP serotype-14 unless otherwise noted in parentheses. All strains of human rhinovirus (HRV) were purchased from American Type Culture Collection (ATCC), except for serotype 14, which was produced from the infectious cDNA clone constructed and supplied to us by Dr. Roland Rueckert at the Institute for Molecular Virology, University of Wisconsin, Madison, Wisc. […] The data in the column designated kobs/I was measured from progress curves in enzyme start experiments.
# HI-HeLa cells = experiment: Cytotoxicity in mock-infected HI-HeLa cells (antirhinoviral assay, XTT); format: cell-based
# Method: (§1) HI-HeLa cells were infected with HRV-14 at a multiplicity of infection (m.o.i.) of 0.13 (virus particles/cell) or mock-infected with medium only. Infected or mock-infected cells were resuspended at 8×10^5 cells per mL and incubated with appropriate concentration of compounds of formulas I and II. Two days later, XTT/PMS was added to test plates and the amount of formazan produced was quantified spectrophotometrically at 450/650 nm. […] The therapeutic index (TI) was calculated by dividing the CC50 by the EC50.
# (§2) All strains of human rhinovirus (HRV) for use in this assay were purchased from American Type Culture Collection (ATCC), except for HRV serotype-14, which was produced from the infectious cDNA clone, constructed and supplied to us by Dr. Roland Rueckert at the Institue for Molecular Virology, University of Wisconsin, Madison, Wisc. HRV stocks were propagated, and antiviral assays were perforemd in HI-HeLa cells (ATCC). Cells were grwon in Minimal Essential Medium, available from Life Technologies, with 10% fetal bovine serum.
# HRV-14 = experiment: Antirhinoviral HI-HeLa Cell Culture Assay (Cell Protection Assay, XTT dye reduction); format: cell-based, human rhinovirus (HRV) serotype-14; conditions: HI-HeLa cells infected with HRV-14, m.o.i. 0.13; two days; XTT; read-out: EC50
# Method: In the Cell Protection Assay, the ability of compounds to protect cells against HRV infection was measured by the XTT dye reduction method. This method is described in Weislow, O. S., R. Kiser, D. L. Fine, J. Bader, R. H. Shoemaker, and M. R. Boyd, J. Natl. Cancer Inst. 1989, 81, 577-586, which is incorporated herein by reference.
# as §1, §2
# The compounds were tested against control compounds WIN 51711, WIN 52084, and WIN 54954, all obtained from Sterling-Winthrop Pharmaceuticals, and control compound Pirodavir, obtained from Janssen Pharmaceuticals.
# [2] = RVP serotype-14, 10 minute preincubation, substrate start, read-out: INHIB (Ki)
# [3] = mock-infected HI-HeLa cells, two days, XTT, read-out: CC50
# T1 sequence (P03303 1538-1719): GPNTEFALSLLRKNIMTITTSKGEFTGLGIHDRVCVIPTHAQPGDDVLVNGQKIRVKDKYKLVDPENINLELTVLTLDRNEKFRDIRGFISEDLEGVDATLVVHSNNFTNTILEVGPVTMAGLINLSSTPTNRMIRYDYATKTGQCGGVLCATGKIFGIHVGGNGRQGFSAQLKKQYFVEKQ
structure (smiles),measurement,setting,value
"CCOC(=O)C=CC(CCC(N)=O)NC(=O)C(Cc1ccccc1)NC(=O)C(NC(=O)SC1CCCC1)C(C)(C)[S+](C)[O-] (mixture of isomers) [Compound 179, Ethyl-3-(Cyclopentylthiocarbonyl-L-[S(O)-Me-Pen]-L-Phe-L-Gln)-E-Propenoate]",Ki,[1]; [2],0.36 µM
same,kobs/I,[1]; RVP serotype-14,"300,000 M-1 sec-1"
same,CC50,HI-HeLa cells,> 100 µM
same,EC50,HRV-14,1.78 µM
"CC(C)C[C@H](NC(=O)OCc1ccccc1)C(=O)N[C@@H](Cc1ccccc1)C(=O)NC(/C=C/C#N)CCC(N)=O (mixture of isomers) [Compound 14, 3-(CBZ-L-Leu-L-Phe-DL-Gln)-E-Propenonitrile]",CC50,HI-HeLa cells,500 µM
same,EC50,HRV-14,17.8 µM
"CCOC(=O)/C(F)=C\[C@H](CCC#N)NC(=O)[C@H](Cc1ccccc1)NC(=O)[C@H](CC(C)C)NC(=O)OCc1ccccc1 [Compound 1, Ethyl-2-Fluoro-3-[CBZ-L-Leu-L-Phe-L-(Cyanomethyl)-Ala]-E-Propenoate]",INHIB (percent inhibition),[1]; RVP serotype-14,77 (50) percent
"CCNC(=O)/C=C/[C@H](CCC(N)=O)NC(=O)[C@H](Cc1ccccc1)NC(=O)[C@H](CC(C)C)NC(=O)OCc1ccccc1 [Compound 6, N-Ethyl-3-(CBZ-L-Leu-L-Phe-L-Gln)-E-Propenamide]",Ki,[1]; [2],32 µM
same,kobs/I,[1]; RVP serotype-14,350 M⁻¹ s⁻¹
same,CC50,HI-HeLa cells,> 320 µM
same,EC50,HRV-14,> 320 µM
"CCOP(=O)(/C=C/[C@H](CCC(N)=O)NC(=O)[C@H](Cc1ccccc1)NC(=O)[C@H](CC(C)C)NC(=O)OCc1ccccc1)OCC [Compound 20, Diethyl-[2-(CBZ-L-Leu-L-Phe-L-Gln)-E-Vinyl] Phosphonate]",CC50,HI-HeLa cells; [3],> 320 µM
same,EC50,HRV-14,> 320 µM
"CCOC(=O)/C=C/[C@H](CCC(N)=O)NC(=O)[C@H](Cc1ccccc1)NS(=O)(=O)CC [Compound 33, Ethyl-3-[N-(Ethylsulfonyl)-L-Phe-L-Gln]-E-Propenoate]",INHIB (percent inhibition),"[1]; RVP serotype-14, 10 μM compound",24(10) percent
same,kobs/I,[1]; RVP serotype-14,33 M⁻¹ s⁻¹
same,CC50,HI-HeLa cells,> 100 µM
CC(C)C[C@H](NC(=O)OCc1ccccc1)C(=O)N[C@@H](Cc1ccccc1)C(=O)N[C@H](/C=C/CSc1ccccn1)CCC(N)=O [Compound 75],CC50,HI-HeLa cells,> 100 µM
same,EC50,HRV-14,5 µM
C/C(=C\[C@H](CCC(N)=O)NC(=O)[C@H](Cc1ccccc1)NC(=O)[C@H](CC(C)C)NC(=O)OCc1ccccc1)C(=O)O [Compound 144],CC50,HI-HeLa cells,> 320 µM
same,EC50,HRV-14,104 µM
"CCOC(=O)/C=C/[C@H](CCC(N)=O)NC(=O)[C@H](Cc1ccc(C)cc1)NC(=O)[C@@H](NC(=O)SC1CCCC1)C(C)(C)C [Compound 174, Ethyl-3-[Cyclopentylthiocarbonyl-L-α-(t-Butyl-Gly)-L-(4-Me-Phe)-L-Gln]-E-Propenoate]",CC50,HI-HeLa cells; [3],> 100 µM
same,EC50,HRV-14,0.056 µM
Cc1ccc(CC(NC(=O)C(NC(=O)SC2CCCC2)C(C)(C)C)C(=O)NC(C=CC(=O)OCc2ccccc2)CCC(N)=O)cc1 (stereo not shown) [Compound 186],kobs/I,[1]; RVP serotype-14,"950,000 M-1 sec-1"
COCCOC(=O)/C=C/[C@H](CCC(N)=O)NC(=O)[C@H](Cc1ccc(C)cc1)NC(=O)[C@@H](NC(=O)SC1CCCC1)C(C)(C)C [Compound 188],Ki,[1],0.16 µM
same,kinact/KI,"[1]; pH 7.6, read-out: kobs/I",580000 M⁻¹ s⁻¹
CC(=O)N1CC/C(=C\[C@H](CCC(N)=O)NC(=O)[C@H](Cc2ccc(F)cc2)NC(=O)[C@@H](NC(=O)SC2CCCC2)C(C)(C)C)C1=O [Compound 189],kobs/I,[1]; RVP serotype-14,"386,000 M-1 sec-1"
CCOC(=O)/C=C/[C@H](CCC(N)=O)NC(=O)[C@H](Cc1ccc(C)cc1)NC(=O)[C@@H](NC(=O)OC1CCCC1)C(C)(C)C [Compound 190],kobs/I,[1]; RVP serotype-14,"29,230 M-1 sec-1"
"Cc1cc(CCCCCCCOc2ccc(C3=NCCO3)cc2)on1 [WIN 51711, reference compound]",CC50,HI-HeLa cells; [3],> 60 µM
same,EC50,HRV-14,0.78 µM
"Cc1cc(CCCCCCCOc2ccc(C3=N[C@@H](C)CO3)cc2)on1 [WIN 52084, reference compound]",CC50,HI-HeLa cells; [3],> 10 µM
same,EC50,HRV-14,0.07 µM
